Assay results as given in ChEMBL document CHEMBL5537170, “Design, Synthesis, and Anti-Osteoporotic Characterization of Arginine N-Glycosylated Teriparatide Analogs via the Silver-catalyzed Solid-Phase Glycosylation Strategy” (J Med Chem, 2024).
One block for each molecule: values may come before it. The source made the active and inactive calls. The rule behind the calls is not given here. *1 amine or outer side, *2 acyl side, *3 side chain or, on linkers, in order; H or OH if unused. Where a SMILES comes first, the peptide text is derived from it. [ ]: non-standard residue; d: D form. X3 = CC(=O)N[C@@H]1[C@@H](O)[C@H](O)[C@@H](CO)O[C@H]1NC(=N)NCCC[C@H](N[*:1])C(=O)[*:2]

Tests used:
Pre-Osteoblast [1] = assay: Induction of osteoblast differentiation in C57BL/6 mouse Pre-Osteoblast cells assessed as increase in bone mineralization by measuring increase in area of calcium nodules measured after 14 days by Alizarin Red S staining based analysis; format: functional, cell-based; settings: time 14.0 day
Mus musculus [2] = assay: Anti-osteoporosis activity in ovariectomized C57BL/6J mouse model assessed as increase in bone surface density in femur at 20 microg/kg, sc administered 3 times a week for 8 weeks by micro-CT analysis; format: functional, organism-based; settings: dose 20.0 µg/kg
[3] = Stability in human serum assessed as compound remaining at 1 mg/ml measured after 12 hrs by HPLC analysis; format: ADME, cell-free; settings: read-out: Stability
Pre-Osteoblast [4] = assay: Induction of osteoblast differentiation in C57BL/6 mouse Pre-Osteoblast cells assessed as upregulation of ALP gene expression measured on day 4 and 7 by qPCR analysis; format: functional, cell-based; settings: time 4-7 day
[5] = Induction of osteoblast differentiation in C57BL/6 mouse Pre-Osteoblast cells assessed as fold increase in ephrinB2 protein expression at 100 nM measured after 72 hrs by Western blot analysis relative to control; format: functional
Pre-Osteoblast [6] = assay: Induction of osteoblast differentiation in C57BL/6 mouse Pre-Osteoblast cells assessed as increase in bone mineralization by measuring increase in red calcium nodules measured after 14 days by Alizarin Red S staining based analysis; format: functional, cell-based; settings: time 14.0 day
Mus musculus [7] = assay: Anti-osteoporosis activity in ovariectomized C57BL/6J mouse model assessed as increase in bone volume percent in femur at 20 microg/kg, sc administered 3 times a week for 8 weeks by micro-CT analysis; format: functional, organism-based; settings: dose 20.0 µg/kg
[8] = Induction of osteoblast differentiation in C57BL/6 mouse Pre-Osteoblast cells assessed as fold increase in ephrinB2 protein expression at 50 nM measured after 72 hrs by Western blot analysis relative to control; format: functional
[9] = Cytotoxicity against C57BL/6 mouse Pre-Osteoblast cells assessed as cell death upto 5 uM incubated for 4 days by CCK-8 assay; format: toxicity, cell-based; settings: 96 h, time 4 day
Pre-Osteoblast [10] = assay: Induction of osteoblast differentiation in C57BL/6 mouse Pre-Osteoblast cells assessed as increase in ALP expression by measuring increase in ALP-positive cells with purple color at 50 nM measured after 2 days by ALP staining based analysis; format: functional, cell-based; settings: time 2.0 day
Mus musculus [11] = assay: Anti-osteoporosis activity in ovariectomized C57BL/6J mouse model assessed as increase in trabecular number in femur at 20 microg/kg, sc administered 3 times a week for 8 weeks by micro-CT analysis; format: functional, organism-based; settings: dose 20.0 µg/kg
[12] = Induction of osteoblast differentiation in C57BL/6 mouse Pre-Osteoblast cells assessed as fold increase in ephrinB2 protein expression at 200 nM measured after 72 hrs by Western blot analysis relative to control; format: functional
Pre-Osteoblast [13] = assay: Induction of osteoblast differentiation in C57BL/6 mouse Pre-Osteoblast cells assessed as upregulation of OCN gene expression measured on day 4 and 7 by qPCR analysis; format: functional, cell-based; settings: time 4-7 day
Pre-Osteoblast [14] = assay: Induction of osteoblast differentiation in C57BL/6 mouse Pre-Osteoblast cells assessed as upregulation of Runx2 gene expression measured on day 4 and 7 by qPCR analysis; format: functional, cell-based; settings: time 4-7 day

remaining at 12 h, 1 mg/ml [3]: > 75%
Compound: CC[C@H](C)[C@H](NC(=O)[C@H](CCC(=O)O)NC(=O)[C@H](CO)NC(=O)[C@@H](NC(=O)[C@H](CO)NC(C)=O)C(C)C)C(=O)N[C@@H](CCC(N)=O)C(=O)N[C@@H](CC(C)C)C(=O)N[C@@H](CCSC)C(=O)N[C@@H](Cc1cnc[nH]1)C(=O)N[C@@H](CC(N)=O)C(=O)N[C@@H](CC(C)C)C(=O)NCC(=O)N[C@@H](CCCCN)C(=O)N[C@@H](Cc1cnc[nH]1)C(=O)N[C@@H](CC(C)C)C(=O)N[C@@H](CC(N)=O)C(=O)N[C@@H](CO)C(=O)N[C@@H](CCSC)C(=O)N[C@@H](CCC(=O)O)C(=O)N[C@@H](CCCNC(=N)N)C(=O)N[C@H](C(=O)N[C@@H](CCC(=O)O)C(=O)N[C@@H](Cc1c[nH]c2ccccc12)C(=O)N[C@@H](CC(C)C)C(=O)N[C@@H](CCCNC(=N)N[C@@H]1O[C@H](CO)[C@@H](O[C@H]2O[C@H](CO)[C@@H](O)[C@H](O)[C@H]2O)[C@H](O)[C@H]1O)C(=O)N[C@@H](CCCCN)C(=O)N[C@@H](CCCCN)C(=O)N[C@@H](CC(C)C)C(=O)N[C@@H](CCC(N)=O)C(=O)N[C@@H](CC(=O)O)C(=O)N[C@H](C(=O)N[C@@H](Cc1cnc[nH]1)C(=O)N[C@@H](CC(N)=O)C(=O)N[C@@H](Cc1ccccc1)C(N)=O)C(C)C)C(C)C
Activity (Pre-Osteoblast [1]): Active
Activity (Mus musculus [2]): Active
Activity (Pre-Osteoblast [4]): Active
fold change (FC) [5]: 1.34
Activity (Pre-Osteoblast [6]): Active
Activity (Mus musculus [7]): Active
fold change (FC) [8]: 1.16
Activity [9]: Non-Toxic
Activity (Pre-Osteoblast [10]): Active
Activity (Mus musculus [11]): Active
fold change (FC) [12]: 1.32
Activity (Pre-Osteoblast [13]): Active
Activity (Pre-Osteoblast [14]): Active

remaining at 12 h, 1 mg/ml [3]: > 75%
Compound: CC[C@H](C)[C@H](NC(=O)[C@H](CCC(=O)O)NC(=O)[C@H](CO)NC(=O)[C@@H](NC(=O)[C@H](CO)NC(C)=O)C(C)C)C(=O)N[C@@H](CCC(N)=O)C(=O)N[C@@H](CC(C)C)C(=O)N[C@@H](CCSC)C(=O)N[C@@H](Cc1cnc[nH]1)C(=O)N[C@@H](CC(N)=O)C(=O)N[C@@H](CC(C)C)C(=O)NCC(=O)N[C@@H](CCCCN)C(=O)N[C@@H](Cc1cnc[nH]1)C(=O)N[C@@H](CC(C)C)C(=O)N[C@@H](CC(N)=O)C(=O)N[C@@H](CO)C(=O)N[C@@H](CCSC)C(=O)N[C@@H](CCC(=O)O)C(=O)N[C@@H](CCCNC(=N)N[C@@H]1OC[C@@H](O)[C@H](O)[C@H]1O)C(=O)N[C@H](C(=O)N[C@@H](CCC(=O)O)C(=O)N[C@@H](Cc1c[nH]c2ccccc12)C(=O)N[C@@H](CC(C)C)C(=O)N[C@@H](CCCNC(=N)N)C(=O)N[C@@H](CCCCN)C(=O)N[C@@H](CCCCN)C(=O)N[C@@H](CC(C)C)C(=O)N[C@@H](CCC(N)=O)C(=O)N[C@@H](CC(=O)O)C(=O)N[C@H](C(=O)N[C@@H](Cc1cnc[nH]1)C(=O)N[C@@H](CC(N)=O)C(=O)N[C@@H](Cc1ccccc1)C(N)=O)C(C)C)C(C)C
Activity (Pre-Osteoblast [1]): Active
Activity (Mus musculus [2]): Active
fold change (FC) [5]: 1.28
Activity (Pre-Osteoblast [6]): Active
Activity (Mus musculus [7]): Active
fold change (FC) [8]: 1.04
Activity [9]: Non-Toxic
Activity (Pre-Osteoblast [10]): Active
Activity (Mus musculus [11]): Active
fold change (FC) [12]: 1.29

Compound: CC[C@H](C)[C@H](NC(=O)[C@H](CCC(=O)O)NC(=O)[C@H](CO)NC(=O)[C@@H](NC(=O)[C@H](CO)NC(C)=O)C(C)C)C(=O)N[C@@H](CCC(N)=O)C(=O)N[C@@H](CC(C)C)C(=O)N[C@@H](CCSC)C(=O)N[C@@H](Cc1cnc[nH]1)C(=O)N[C@@H](CC(N)=O)C(=O)N[C@@H](CC(C)C)C(=O)NCC(=O)N[C@@H](CCCCN)C(=O)N[C@@H](Cc1cnc[nH]1)C(=O)N[C@@H](CC(C)C)C(=O)N[C@@H](CC(N)=O)C(=O)N[C@@H](CO)C(=O)N[C@@H](CCSC)C(=O)N[C@@H](CCC(=O)O)C(=O)N[C@@H](CCCNC(=N)N)C(=O)N[C@H](C(=O)N[C@@H](CCC(=O)O)C(=O)N[C@@H](Cc1c[nH]c2ccccc12)C(=O)N[C@@H](CC(C)C)C(=O)N[C@@H](CCCNC(=N)N[C@@H]1O[C@H](CO)[C@@H](O)[C@H](O)[C@H]1O)C(=O)N[C@@H](CCCCN)C(=O)N[C@@H](CCCCN)C(=O)N[C@@H](CC(C)C)C(=O)N[C@@H](CCC(N)=O)C(=O)N[C@@H](CC(=O)O)C(=O)N[C@H](C(=O)N[C@@H](Cc1cnc[nH]1)C(=O)N[C@@H](CC(N)=O)C(=O)N[C@@H](Cc1ccccc1)C(N)=O)C(C)C)C(C)C
Activity [9]: Non-Toxic

Compound: CC[C@H](C)[C@H](NC(=O)[C@H](CCC(=O)O)NC(=O)[C@H](CO)NC(=O)[C@@H](NC(=O)[C@H](CO)NC(C)=O)C(C)C)C(=O)N[C@@H](CCC(N)=O)C(=O)N[C@@H](CC(C)C)C(=O)N[C@@H](CCSC)C(=O)N[C@@H](Cc1cnc[nH]1)C(=O)N[C@@H](CC(N)=O)C(=O)N[C@@H](CC(C)C)C(=O)NCC(=O)N[C@@H](CCCCN)C(=O)N[C@@H](Cc1cnc[nH]1)C(=O)N[C@@H](CC(C)C)C(=O)N[C@@H](CC(N)=O)C(=O)N[C@@H](CO)C(=O)N[C@@H](CCSC)C(=O)N[C@@H](CCC(=O)O)C(=O)N[C@@H](CCCNC(=N)N[C@@H]1O[C@H](CO)[C@H](O)[C@H](O)[C@H]1O)C(=O)N[C@H](C(=O)N[C@@H](CCC(=O)O)C(=O)N[C@@H](Cc1c[nH]c2ccccc12)C(=O)N[C@@H](CC(C)C)C(=O)N[C@@H](CCCNC(=N)N)C(=O)N[C@@H](CCCCN)C(=O)N[C@@H](CCCCN)C(=O)N[C@@H](CC(C)C)C(=O)N[C@@H](CCC(N)=O)C(=O)N[C@@H](CC(=O)O)C(=O)N[C@H](C(=O)N[C@@H](Cc1cnc[nH]1)C(=O)N[C@@H](CC(N)=O)C(=O)N[C@@H](Cc1ccccc1)C(N)=O)C(C)C)C(C)C
Activity [9]: Non-Toxic

Compound: CC[C@H](C)[C@H](NC(=O)[C@H](CCC(=O)O)NC(=O)[C@H](CO)NC(=O)[C@@H](NC(=O)[C@H](CO)NC(C)=O)C(C)C)C(=O)N[C@@H](CCC(N)=O)C(=O)N[C@@H](CC(C)C)C(=O)N[C@@H](CCSC)C(=O)N[C@@H](Cc1cnc[nH]1)C(=O)N[C@@H](CC(N)=O)C(=O)N[C@@H](CC(C)C)C(=O)NCC(=O)N[C@@H](CCCCN)C(=O)N[C@@H](Cc1cnc[nH]1)C(=O)N[C@@H](CC(C)C)C(=O)N[C@@H](CC(N)=O)C(=O)N[C@@H](CO)C(=O)N[C@@H](CCSC)C(=O)N[C@@H](CCC(=O)O)C(=O)N[C@@H](CCCNC(=N)N[C@@H]1O[C@H](CO)[C@@H](O)[C@H](O)[C@H]1NC(C)=O)C(=O)N[C@H](C(=O)N[C@@H](CCC(=O)O)C(=O)N[C@@H](Cc1c[nH]c2ccccc12)C(=O)N[C@@H](CC(C)C)C(=O)N[C@@H](CCCNC(=N)N[C@@H]1O[C@H](CO)[C@@H](O)[C@H](O)[C@H]1NC(C)=O)C(=O)N[C@@H](CCCCN)C(=O)N[C@@H](CCCCN)C(=O)N[C@@H](CC(C)C)C(=O)N[C@@H](CCC(N)=O)C(=O)N[C@@H](CC(=O)O)C(=O)N[C@H](C(=O)N[C@@H](Cc1cnc[nH]1)C(=O)N[C@@H](CC(N)=O)C(=O)N[C@@H](Cc1ccccc1)C(N)=O)C(C)C)C(C)C (Ac-SVSEIQLMHNLGKHLNSME[X3]VEWL[X3]KKLQDVHNF-NH2)
Activity [9]: Non-Toxic

Compound: CC[C@H](C)[C@H](NC(=O)[C@H](CCC(=O)O)NC(=O)[C@H](CO)NC(=O)[C@@H](NC(=O)[C@H](CO)NC(C)=O)C(C)C)C(=O)N[C@@H](CCC(N)=O)C(=O)N[C@@H](CC(C)C)C(=O)N[C@@H](CCSC)C(=O)N[C@@H](Cc1cnc[nH]1)C(=O)N[C@@H](CC(N)=O)C(=O)N[C@@H](CC(C)C)C(=O)NCC(=O)N[C@@H](CCCCN)C(=O)N[C@@H](Cc1cnc[nH]1)C(=O)N[C@@H](CC(C)C)C(=O)N[C@@H](CC(N)=O)C(=O)N[C@@H](CO)C(=O)N[C@@H](CCSC)C(=O)N[C@@H](CCC(=O)O)C(=O)N[C@@H](CCCNC(=N)N)C(=O)N[C@H](C(=O)N[C@@H](CCC(=O)O)C(=O)N[C@@H](Cc1c[nH]c2ccccc12)C(=O)N[C@@H](CC(C)C)C(=O)N[C@@H](CCCNC(=N)N[C@@H]1O[C@H](CO)[C@@H](O[C@@H]2O[C@H](CO)[C@H](O)[C@H](O)[C@H]2O)[C@H](O)[C@H]1O)C(=O)N[C@@H](CCCCN)C(=O)N[C@@H](CCCCN)C(=O)N[C@@H](CC(C)C)C(=O)N[C@@H](CCC(N)=O)C(=O)N[C@@H](CC(=O)O)C(=O)N[C@H](C(=O)N[C@@H](Cc1cnc[nH]1)C(=O)N[C@@H](CC(N)=O)C(=O)N[C@@H](Cc1ccccc1)C(N)=O)C(C)C)C(C)C
Activity [9]: Non-Toxic
